Measured values published in PMC10552397 (Cell Communication and Signaling : CCS, 2023).
pIC50: −log10 of the molar value. Read-outs that look alike come from different tables or passages of the source.

Tests used:
[1] = test system: HeLa wt cells; assay: BFA washout assay (Golgi reassembly, TGN46 and B4GALT1 staining); assay type: cell-based; conditions: 120 min washout
Method: For BFA washout assays, HeLa wt cells were seeded on glass coverslips in 24-well plates. […] After 24 h, the treatment medium was removed, cells were washed once with DPBS and then treated with 5 µg/mL BFA or 0.1% DMSO as a control for 2 h. Cells were then washed with DPBS four times and incubated with fresh culture medium for 0/15/30/45/60/120 min. After the respective BFA washout time, cells were fixed in ice-cold methanol for 15 min on ice, washed three times with DPBS and blocked in 3% BSA (Roth, Karlsruhe, Germany, #8076) overnight. Samples were incubated with primary antibodies diluted in 3% BSA for 2 h and then washed three times with DPBS, incubated with the appropriate secondary antibodies diluted in 3% BSA for 30 min and washed three times with DPBS. Afterwards, cells were embedded in ProLong Glass Antifade Mountant (Thermo Fisher Scientific, Waltham, MA, USA, #P36980) containing 1 µg/mL DAPI (Roth, Karlsruhe, Germany, #6335.1). Images were recorded with an Axio Observer 7 fluorescence microscope (Carl Zeiss Microscopy, Oberkochen, Germany) using a 40x/1,4 Oil DIC M27 Plan-Apochromat objective (Carl Zeiss Microscopy, Oberkochen, Germany) and an ApoTome 2 (Carl Zeiss Microscopy, Oberkochen, Germany).

[2] = target: T1, cathepsin B (Homo sapiens, UniProt P07858); assay: Cathepsin B activity assay in treated HeLa cells; assay type: cell-based; conditions: 24 h, concentration-dependent, HeLa wt
T1 construct: host or cells: HeLa wt cells
Source text: Antibodies against β-actin (Sigma-Aldrich, St. Louis, MO, USA, #A5316, clone AC-74, 1:5000), B4GALT1 (Sigma-Aldrich, St. Louis, MO, USA, #HPA010807, 1:200), GAPDH (abcam, Cambridge, UK, #ab8245, 1:5000), GRASP55 (Proteintech, Chicago, IL, USA, #10,598–1-AP, 1:200 for IF and 1:2000 for WB), LAMP1 (Sigma-Aldrich, St. Louis, MO, USA, #L1418, 1:200), LC3B (MBL, Woburn, MA, USA, #M-152–3, 1:200 for IF and Cell Signalling Technology, Danvers, MA, USA, #2775, 1:1000 for WB), SQSTM1 (PROGEN, Heidelberg, Germany, #GP62-C, 1:1000) and TGN46 (Bio-Rad, Hercules, CA, USA, #AHP500GT, 1:200) were used. For WB, IRDye 800- or IRDye 680-conjugated secondary antibodies were purchased from LI-COR Biosciences (Lincoln, NE, USA, #926–68,077, #926–32,211 and #926–32,210). […] The cathepsin activity of treated HeLa cells was quantified using the fluorimetric Cathepsin B Activity Assay Kit (abcam, Cambridge, UK, #ab65300) according to the manufacturer´s instructions and measured with a microplate reader (SynergyMx, BioTek, Winooski, VT, USA).

[3] = test system: HeLa GRASP55 KO cells; assay: cells; conditions: Homo sapiens, read-out: IC50 value GRASP55 KO
Method: Cell viability was measured using the MTT (3-(4,5-dimethylthiazol-2-yl)-2,5-diphenyltetrazolium bromide) assay. HeLa cells were seeded in 96-well plates with a density of 5*10^3 cells/well. […] After the incubation time, 20 µL of a 5 mg/mL MTT stock solution (ROTH, Karlsruhe, Germany, #4022.3) were added to the cells and they were incubated at 37 °C and 5% CO2 in a humidified atmosphere for 30 min. Upon removal of the MTT-containing medium 100 µL DMSO per well were added for extraction of the formazan. Absorbance was measured at 570 nm and 650 nm (reference) with a microplate reader (SynergyMx, BioTek, Winooski, VT, USA). After subtraction of the reference value, the mean of the absorbance of the solvent control was set as 100% and the relative viability was calculated for each sample.
GRASP55 KO cells were generated using the CRISPR/Cas9 system developed by the Zhang lab [59]. Double-stranded DNA oligos (5´-[sequence]-3´, 3´-[sequence]-5´), encoding guide RNAs (gRNAs) against the target gene were cloned into the Bbsl restriction site of pSpCas9(BB)-2A-GFP (PX458) vector gifted from Feng Zhang (Addgene plasmid #48,138; http://n2t.net/addgene:48138; RRID:Addgene_48138). […]
All IC50 values were calculated using GraphPad Prism 7.01.

CCCCCC1=C/C(=C/c2[nH]c(-c3ccc[nH]3)cc2OC)N=C1C [Prodigiosin, prodigiosin]
Golgi reassembly during BFA washout ([1]; 10 nM pre-treatment 24 h): fully reformed Golgi complex
Golgi reassembly during BFA washout ([1]; 100 nM pre-treatment 24 h): severely disturbed Golgi reassembly
cathepsin B activity [2]: significantly reduced
pIC50 ([3]; 24 h): 5.85
pIC50 ([3]; 72 h): 7.08
